{"source": "patent US8946397B1", "about": "“Tagged nucleosides that leave no scar upon cleavage” (priority 2011, dated 2015)", "key": {"[1]": {"conditions": "cited from earlier work"}, "Bst DNA polymerases": {"target": "T1, Bst DNA polymerases (Geobacillus stearothermophilus, UniProt P52026)", "T1 sequence (P52026 1-876)": "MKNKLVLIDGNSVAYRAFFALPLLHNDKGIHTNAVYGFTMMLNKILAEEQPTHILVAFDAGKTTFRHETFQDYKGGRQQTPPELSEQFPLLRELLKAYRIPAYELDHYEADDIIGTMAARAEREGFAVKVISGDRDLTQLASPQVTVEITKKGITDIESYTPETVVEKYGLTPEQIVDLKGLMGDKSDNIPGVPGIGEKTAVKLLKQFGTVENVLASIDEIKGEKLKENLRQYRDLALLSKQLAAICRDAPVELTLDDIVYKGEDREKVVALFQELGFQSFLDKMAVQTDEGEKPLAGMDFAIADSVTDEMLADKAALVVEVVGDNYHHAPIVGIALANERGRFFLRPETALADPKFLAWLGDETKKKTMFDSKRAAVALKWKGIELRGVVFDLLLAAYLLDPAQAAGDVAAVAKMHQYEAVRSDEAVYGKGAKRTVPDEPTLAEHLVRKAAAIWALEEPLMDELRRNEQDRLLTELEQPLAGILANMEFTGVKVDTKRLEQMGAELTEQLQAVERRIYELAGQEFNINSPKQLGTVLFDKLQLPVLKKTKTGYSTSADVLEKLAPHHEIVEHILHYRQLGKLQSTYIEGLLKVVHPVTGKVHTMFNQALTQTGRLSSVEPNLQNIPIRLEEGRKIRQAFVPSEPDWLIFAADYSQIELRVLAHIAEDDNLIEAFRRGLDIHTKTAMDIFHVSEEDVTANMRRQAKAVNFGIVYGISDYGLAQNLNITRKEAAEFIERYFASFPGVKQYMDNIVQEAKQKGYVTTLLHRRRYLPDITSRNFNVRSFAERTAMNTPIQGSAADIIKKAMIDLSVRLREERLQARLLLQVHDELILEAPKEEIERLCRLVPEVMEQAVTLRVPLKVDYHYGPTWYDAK", "assay": "Standing start primer-extension assay", "assay_type": "biochemical", "conditions": "30 min incubation, triphosphate 100 μM, Template AA", "experimental": "(§1) Thirteen DNA polymerases and reverse transcriptases performing well last time were tested again for their abilities to incorporate the triphosphate carrying a Bodipy 576/589 fluor (FIG. 6). The incubation time was extended to 30 min to see the boundaries for the enzymes to still consume all the primer s without leading to N+2 bands.\n(§2) Gamma-^32P-labeled primer (2.5 pmol), cold primer (22.5 pmol) and template (30 pmol) were annealed by incubation at 95° C. for 5 min in various reaction buffer and slowly cooled to room temperature, followed by the addition of various DNA polymerase and reverse transcriptases. The extension was initiated by adding MJK's nucleoside triphosphates (MJ-008-065) (final concentration of 100 μM). After 30 min, the reaction was quenched by 10 mM EDTA in formamide loading buffer (20 μL); products were resolved by 14% PAGE."}, "Deep Vent (exo-)": {"target": "Deep Vent (exo-) (Pyrococcus sp., UniProt Q51334, D141A/DEL493-1029/E143A)", "sequence (Q51334 other isoform, or with tags, fused parts or gaps D141A/E143A/DEL493-1029)": "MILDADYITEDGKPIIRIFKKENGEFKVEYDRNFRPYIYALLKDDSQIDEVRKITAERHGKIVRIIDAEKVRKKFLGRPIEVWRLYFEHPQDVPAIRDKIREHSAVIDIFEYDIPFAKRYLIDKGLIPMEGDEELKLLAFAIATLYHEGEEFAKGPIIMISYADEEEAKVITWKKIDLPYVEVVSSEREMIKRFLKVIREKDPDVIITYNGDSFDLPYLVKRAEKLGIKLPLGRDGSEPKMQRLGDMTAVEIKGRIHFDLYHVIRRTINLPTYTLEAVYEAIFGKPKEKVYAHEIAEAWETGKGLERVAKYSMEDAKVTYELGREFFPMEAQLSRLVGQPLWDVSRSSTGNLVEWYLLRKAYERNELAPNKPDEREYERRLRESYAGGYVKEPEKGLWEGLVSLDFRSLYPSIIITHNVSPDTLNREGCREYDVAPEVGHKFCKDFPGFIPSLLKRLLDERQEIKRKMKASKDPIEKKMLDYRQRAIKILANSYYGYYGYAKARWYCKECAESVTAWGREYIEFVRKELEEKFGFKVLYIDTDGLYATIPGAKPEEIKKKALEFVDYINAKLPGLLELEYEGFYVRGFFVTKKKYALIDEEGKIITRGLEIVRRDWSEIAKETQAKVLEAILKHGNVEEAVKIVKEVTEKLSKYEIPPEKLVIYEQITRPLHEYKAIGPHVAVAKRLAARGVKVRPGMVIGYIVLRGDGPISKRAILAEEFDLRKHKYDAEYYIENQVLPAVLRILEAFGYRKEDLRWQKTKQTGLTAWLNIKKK", "assay": "Standing start primer-extension assay", "assay_type": "biochemical", "conditions": "30 min incubation, triphosphate 100 μM, Template AA", "experimental": "as §1, §2"}, "[2]": {"system": "DNA polymerases and reverse transcriptases", "assay": "Standing start primer-extension assay", "assay_type": "biochemical", "experimental": "FIG. 8. […] Subsequent removal of the side chain allows primer extension to continue. […] Incubation is for 2 min with the template primer combination.\nas §1, §2"}, "[3]": {"assay": "Elimination of scar from triphosphate-aldehyde, analyzed by ion-exchange HPLC", "assay_type": "physicochemical", "conditions": "55° C.", "experimental": "To develop the reagents for elimination of scar triphosphate-aldehyde which was obtained from the treatment of compound 17 with 10 mM NaIO4 was used as model compound. A variety of conditions were explored that might eliminate the scar and the reaction was analyzed by ion-exchange HPLC (buffer A: water; buffer B: 1M NH4HCO3; gradient 0˜35% B over 20 min)."}}, "note": "Where two headings read alike, the source gives them in different places."}
{"compound": "Nc1ncnc2c([C@@H]3O[C@H](CO)[C@@H](O)[C@H]3O)[nH]nc12", "note": "[formycin A]", "values": [{"measurement": "pKa", "setting": "[1]; deprotonation of N7", "result": 9.6}]}
{"compound": "BODIPY 576/589 Labeled 1-(5-amino-3,4-dihydroxypentyl)-2′-deoxy-pseudouridine-5′-triphosphate [Compound 18]", "values": [{"measurement": "N+2 products", "setting": "Bst DNA polymerases", "result": "only trace amount"}, {"measurement": "N+2 products", "setting": "Deep Vent (exo-)", "result": "only trace amount"}, {"measurement": "extension of a primer on a template calling for two consecutive T analogs", "setting": "[2]; 2 min incubation, no 3′-ONH2 group (FIG. 8)", "result": "stops with certain of the indicated polymerases after the addition of one T analog"}, {"measurement": "consume all the primer without leading to N+2 bands", "setting": "[2]; thirteen enzymes, 30 min incubation, triphosphate 100 μM, Template AA", "result": "most of the polymerases and reverse transcriptases might achieve this goal"}]}
{"compound": "O=CCCn1cc([C@H]2C[C@H](O)[C@@H](COP(=O)(O)OP(=O)(O)OP(=O)(O)O)O2)c(=O)[nH]c1=O", "note": "[triphosphate-aldehyde]", "values": [{"measurement": "% Product", "setting": "[3]; A: 100 mM glycine, pH 9.0, 10 min", "result": 13, "unit": "%"}, {"measurement": "% Product", "setting": "[3]; A: 100 mM glycine, pH 9.0, 20 min", "result": 20, "unit": "%"}, {"measurement": "% Product", "setting": "[3]; A: 100 mM glycine, pH 9.0, 30 min", "result": 30, "unit": "%"}, {"measurement": "% Product", "setting": "[3]; A: 100 mM glycine, pH 10.0, 10 min", "result": 35, "unit": "%"}, {"measurement": "% Product", "setting": "[3]; A: 100 mM glycine, pH 10.0, 20 min", "result": 70, "unit": "%"}, {"measurement": "% Product", "setting": "[3]; A: 100 mM glycine, pH 10.0, 30 min", "result": 87, "unit": "%"}, {"measurement": "% Product", "setting": "[3]; A: 100 mM glycine, pH 11.0, 10 min", "result": 18, "unit": "%"}, {"measurement": "% Product", "setting": "[3]; A: 100 mM glycine, pH 11.0, 20 min", "result": 52, "unit": "%"}, {"measurement": "% Product", "setting": "[3]; A: 100 mM glycine, pH 11.0, 30 min", "result": 92, "unit": "%"}, {"measurement": "% Product", "setting": "[3]; B: 500 mM morpholine, pH 9.0, 10 min", "result": 73, "unit": "%"}, {"measurement": "% Product", "setting": "[3]; B: 500 mM morpholine, pH 9.0, 20 min", "result": 98, "unit": "%"}, {"measurement": "% Product", "setting": "[3]; B: 500 mM morpholine, pH 10.0, 10 min", "result": 70, "unit": "%"}, {"measurement": "% Product", "setting": "[3]; B: 500 mM morpholine, pH 10.0, 20 min", "result": 98, "unit": "%"}, {"measurement": "% Product", "setting": "[3]; B: 500 mM morpholine, pH 10.5, 10 min", "result": 50, "unit": "%"}, {"measurement": "% Product", "setting": "[3]; B: 500 mM morpholine, pH 10.5, 20 min", "result": 92, "unit": "%"}, {"measurement": "% Product", "setting": "[3]; B: 500 mM morpholine, pH 10.5, 30 min", "result": 99, "unit": "%"}, {"measurement": "% Product", "setting": "[3]; B: 500 mM morpholine, pH 11.2, 10 min", "result": 40, "unit": "%"}, {"measurement": "% Product", "setting": "[3]; B: 500 mM morpholine, pH 11.2, 20 min", "result": 80, "unit": "%"}, {"measurement": "% Product", "setting": "[3]; B: 500 mM morpholine, pH 11.2, 30 min", "result": 94, "unit": "%"}, {"measurement": "% Product", "setting": "[3]; C: 100 mM pyrrolidine, pH 9.0, 5 min", "result": 32, "unit": "%"}, {"measurement": "% Product", "setting": "[3]; C: 100 mM pyrrolidine, pH 9.0, 10 min", "result": 67, "unit": "%"}, {"measurement": "% Product", "setting": "[3]; C: 100 mM pyrrolidine, pH 10.0, 5 min", "result": 90, "unit": "%"}, {"measurement": "% Product", "setting": "[3]; C: 100 mM pyrrolidine, pH 10.0, 10 min", "result": 99, "unit": "%"}, {"measurement": "% Product", "setting": "[3]; C: 100 mM pyrrolidine, pH 11.0, 5 min", "result": 99, "unit": "%"}, {"measurement": "% Product", "setting": "[3]; C: 100 mM pyrrolidine, pH 11.0, 10 min", "result": 99, "unit": "%"}]}
{"compound": "Nc1ncc([C@@H]2O[C@H](CO)[C@@H](O)[C@H]2O)c(=O)[nH]1", "note": "[pseudoisocytidine]", "values": [{"measurement": "pKa", "setting": "[1]; deprotonation of N3", "result": 9.0}]}
{"compound": "O=c1[nH]cc([C@@H]2O[C@H](CO)[C@@H](O)[C@H]2O)c(=O)[nH]1", "note": "[pseudouridine]", "values": [{"measurement": "pKa", "setting": "[1]; cite of deprotonation unclear", "result": 9.1}]}
{"compound": "O=c1[nH]cnc2c([C@@H]3O[C@H](CO)[C@@H](O)[C@H]3O)n[nH]c12", "note": "[formycin B]", "values": [{"measurement": "pKa", "setting": "[1]; deprotonation of N7", "result": 10.4}]}
